Measured values from patent US6774110B2, “Orally available peptidic thrombin inhibitors” (LG Life Sciences Ltd., priority 2001, dated 2004).
Counter-ions that a name gives are not always drawn. Like-named read-outs stand apart in the source and are kept apart here.

Biological target: T1, thrombin (Homo sapiens, UniProt P00734)
T1 construct: Thrombin used in this test was prepared from human plasma; from tissue; host or cells: human plasma
Assay: In vitro enzyme assay for determining thrombin inhibition constants (Chromozym TH substrate)
Format: biochemical
Settings: thrombin prepared from human plasma, Dixon plot, pH 7.8
Method: The activity of thrombin was measured spectrophotometrically using tosyl-Gly-Pro-Arg-p-nitroanilide acetate (Chromozym TH, Boehringer Mannheim) as a substrate. […] Each compound was dissolved in DMSO to make a 1 mM stock solution and dilutions were made thereof with assay buffer (0.1 M TrisHCl, 0.15 M NaCl, 0.1% polyethylene glycol 8000, pH 7.8). Different concentrations of inhibitor were mixed with 0.3 NIH units of thrombin in 0.8 mL of the buffer. The mixture was incubated for 10 min at room temperature before adding 0.2 mL of the substrate to a final concentration of 20 μM. […] A graph for the reciprocal value of initial velocity to the inhibitor concentration was derived from progress curves by fitting the data using a linear regression program. […]

[1] = read-out: Inhibition constant Ki

Compound | Ki [1] | Ki (Inhibition constant Ki)
N=C(N)c1ncc(CNC(=O)[C@@H]2CCCN2C(=O)[C@H](NS(N)(=O)=O)C(c2ccccc2)c2ccccc2)cn1 [Compound 14, N-aminosulfonyl-D-diphenylalanyl-L-prolyl-[(2-amidino-5-pyrimidyl)methyl]amide.TFA] | 0.023 nM | 
N=C(N)c1ccc(CNC(=O)[C@@H]2CCCN2C(=O)[C@@H](Cc2ccc(O)cc2)NS(N)(=O)=O)cc1 [Compound 20, N-aminosulfonyl-D-tyrosinyl-L-prolyl-[(4-amidinophenyl)methyl]amide.TFA] | 0.39 nM | 
N=C(N)c1ccc(CNC(=O)[C@@H]2CCCN2C(=O)[C@H](NC(=O)Oc2ccccc2)C(c2ccccc2)c2ccccc2)cc1 [Compound 25, N-phenyloxycarbonyl-D-diphenylalanyl-L-prolyl-[(4-amidinophenyl)methyl]amide.TFA] |  | 0.15 nM
COC(=O)N[C@@H](C(=O)N1CCC[C@H]1C(=O)NCc1ccc(C(=N)N)cc1)C(c1ccccc1)c1ccccc1 [Compound 22, N-methoxycarbonyl-D-diphenylalanyl-L-prolyl-[(4-amidinophenyl)methyl]amide.TFA] | 0.03 nM | 
N=C(N)c1ccc(CNC(=O)[C@@H]2CCCN2C(=O)[C@H](NS(N)(=O)=O)C(c2ccccc2)c2ccccc2)cc1F [Compound 15, N-aminosulfonyl-D-diphenylalanyl-L-prolyl-[(4-amidino-3-fluorophenyl)methyl]amide.TFA] | 0.03 nM | 
N=C(N)c1ccc(CNC(=O)[C@@H]2CCCN2C(=O)[C@H](NS(N)(=O)=O)C(c2ccccc2)c2ccccc2)cc1N [Compound 18, N-aminosulfonyl-D-diphenylalanyl-L-prolyl-[(4-amidino-3-aminophenyl)methyl]amide.TFA] | 0.2 nM | 
N=C(N)c1ccc(CNC(=O)[C@@H]2CCN2C(=O)[C@H](NS(N)(=O)=O)C(c2ccccc2)c2ccccc2)cc1 [Compound 5, N-aminosulfonyl-D-diphenylalanyl-L-azetidine-2-carboxyl-[(4-amidinophenyl)methyl]amide.TFA] | 0.035 nM | 
COC(=O)N[C@@H](C(=O)N1CCC[C@H]1C(=O)NCc1ccc(C(=N)N)cc1)C1CCCCC1 [Compound 29, N-methoxycarbonyl-D-cyclohexylglycinyl-L-prolyl-[(4-amidinophenyl)methyl]amide.TFA] | 0.52 nM | 
CC(C)(C)OC(=O)N[C@@H](C(=O)N1CCC[C@H]1C(=O)NCc1ccc(C(=N)N)cc1)C(c1ccccc1)c1ccccc1 [Compound 21, N-t-butoxycarbonyl-D-diphenylalanyl-L-prolyl-[(4-amidinophenyl)methyl]amide.TFA] | 0.08 nM | 
N=C(N)c1ccc(CNC(=O)[C@@H]2CCCN2C(=O)[C@@H](CC2CCCCC2)NS(N)(=O)=O)cn1 [Compound 12, N-aminosulfonyl-D-cyclohexylalanyl-L-prolyl-(6-amidino-3-picolyl)amide.TFA] | 2.1 nM | 
N=C(N)c1ccc(CNC(=O)[C@@H]2CCCN2C(=O)[C@H](NS(N)(=O)=O)C(c2ccccc2)c2ccccc2)nc1 [Compound 13, N-aminosulfonyl-D-diphenylalanyl-L-prolyl-(5-amidino-2-picolyl)amide.TFA] | 0.055 nM | 
CS(=O)(=O)N[C@@H](C(=O)N1CCC[C@H]1C(=O)NCc1ccc(C(=N)N)cc1)C(c1ccccc1)c1ccccc1 [Compound 40, N-methylsulfonyl-D-diphenylalanyl-L-prolyl-[(4-amidinophenyl)methyl]amide.TFA] |  | 0.005 nM
N=C(N)c1ccc(CNC(=O)[C@@H]2CCCN2C(=O)[C@H](NCC(=O)O)C(c2ccccc2)c2ccccc2)cn1 [Compound 46, N-carboxymethyl-D-diphenylalanyl-L-prolyl-(6-amidino-3-picolyl)amide.2TFA] | 0.03 nM | 
N=C(N)c1ccc(CNC(=O)[C@@H]2CCCN2C(=O)[C@H](NC(=O)OCc2ccccc2)C(c2ccccc2)c2ccccc2)cc1 [Compound 24, N-benzyloxycarbonyl-D-diphenylalanyl-L-prolyl-[(4-amidinophenyl)methyl]amide.TFA] | 0.04 nM | 
N=C(N)c1ccc(CNC(=O)[C@@H]2CCCN2C(=O)[C@H](NCC(=O)O)C(c2ccccc2)c2ccccc2)cc1 [Compound 45, N-carboxymethyl-D-diphenylalanyl-L-prolyl-[(4-amidinophenyl)methyl]amide.2TFA] | 0.02 nM | 
NCc1ccc(CNC(=O)[C@@H]2CCCN2C(=O)[C@H](NS(N)(=O)=O)C(c2ccccc2)c2ccccc2)cn1 [Compound 10, N-aminosulfonyl-D-diphenylalanyl-L-prolyl-(6-aminomethyl-3-picolyl)amide] | 4.2 nM | 
N=C(N)c1ccc(CNC(=O)[C@@H]2CCCN2C(=O)[C@H](NS(=O)(=O)Cc2ccccc2)C(c2ccccc2)c2ccccc2)cc1 [Compound 41, N-benzylsulfonyl-D-diphenylalanyl-L-prolyl-[(4-amidinophenyl)methyl]amide.TFA] | 0.01 nM | 
Cc1cc(CNC(=O)[C@@H]2CCCN2C(=O)[C@H](NS(N)(=O)=O)C(c2ccccc2)c2ccccc2)ccc1C(=N)N [Compound 17, N-aminosulfonyl-D-diphenylalanyl-L-prolyl-[(4-amidino-3-methylphenyl)methyl]amide.TFA] | 0.32 nM | 
COC(=O)N[C@@H](C(=O)N1CCC[C@H]1C(=O)NCc1ccc(C(=N)N)cn1)C(c1ccccc1)c1ccccc1 [Compound 33, N-methoxycarbonyl-D-diphenylalanyl-L-prolyl-(5-amidino-2-picolyl)amide.TFA] | 0.04 nM | 
N=C(N)c1ccc(CNC(=O)[C@@H]2CCCN2C(=O)[C@H](Nc2ccccc2)C(c2ccccc2)c2ccccc2)cc1 [Compound 50, N-phenyl-D-diphenylalanyl-L-prolyl-[(4-amidinophenyl)methyl]amide.TFA] | 0.045 nM | 
CN(C)S(=O)(=O)N[C@@H](C(=O)N1CCC[C@H]1C(=O)NCc1ccc(C(=N)N)cc1)C(c1ccccc1)c1ccccc1 [Compound 42, N-dimethylaminosulfonyl-D-diphenylalanyl-L-prolyl-[(4-amidinophenyl)methyl]amide.TFA] | 0.002 nM | 
N=C(N)c1ccc(CNC(=O)[C@@H]2CCCN2C(=O)[C@H](NS(N)(=O)=O)C(C2CCCCC2)C2CCCCC2)cn1 [Compound 11, N-aminosulfonyl-D-dicyclohexylalanyl-L-prolyl-(6-amidino-3-picolyl)amide.TFA] | 0.046 nM | 
COC(=O)N[C@@H](C(=O)N1CCC[C@H]1C(=O)NCc1ccc(C(=N)N)nc1)C(C1CCCCC1)C1CCCCC1 [Compound 32, N-methoxycarbonyl-D-dicyclohexylalanyl-L-prolyl-(6-amidino-3-picolyl) amide.TFA] | 0.02 nM | 
COP(=O)(N[C@@H](C(=O)N1CCC[C@H]1C(=O)NCc1ccc(C(=N)N)cc1)C(c1ccccc1)c1ccccc1)OC [Compound 43, N-dimethoxyphosphoryl-D-diphenylalanyl-L-prolyl-[(4-amidinophenyl)methyl]amide.TFA] | 0.011 nM | 
CCOC(=O)CN[C@@H](C(=O)N1CCC[C@H]1C(=O)NCc1ccc(C(N)=NO)cc1)C(c1ccccc1)c1ccccc1 [Compound 49, N-(ethoxycarbonyl)methyl-D-diphenylalanyl-L-prolyl-[(4-hydroxyamidinophenyl)methyl]amide.TFA] | 15.7 nM | 
COC(=O)N[C@@H](C(=O)N1CCC[C@H]1C(=O)NCc1ccc(C(=N)N)c(C)c1)C(c1ccccc1)c1ccccc1 [Compound 37, N-methoxycarbonyl-D-diphenylalanyl-L-prolyl-[(4-amidino-3-methylphenyl)methyl]amide.TFA] | 0.44 nM | 
